Assay results reported in publication PMC9861386, “N-Heterocyclic Carbene-Iridium Complexes as Photosensitizers for In Vitro Photodynamic Therapy to Trigger Non-Apoptotic Cell Death in Cancer Cells” (Molecules, 2023).
Like-named read-outs stand apart in the source and are kept apart here. Where a SMILES comes first, the peptide text is derived from it. The star is where a group is joined. Cbz = O=C(OCc1ccccc1)*; CH2F = FC*

Key:
[1] = tested on: MCF7/FasR cells; assay: Cell death with or without pan-caspase inhibitor z-VAD-fmk, MTT; type: cell-based, human; conditions: 10 µM z-VAD-fmk, MCF7/FasR and MCF7/FasR/Bcl-xL, 72 h
Text: To determine the mechanism of cell death, we used MCF7 cells transfected to express the human Fas receptor (FasR) or doubly transfected to express the human Fas receptor and human Bcl-xL [75]. Since MCF7 cells express the TNF receptor endogenously, this allowed the study of both Fas- and TNFα-mediated apoptosis in the same cell model to assess whether cell death was dependent on the Bcl-2 family of mitochondrial proteins such as Bcl-xL. […] This is consistent with findings that death receptors such as FasR and TNFR can mediate apoptosis through both the extrinsic pathway (mitochondria-independent by directly activating executioner caspases via upstream caspase-8) and the intrinsic (mitochondrial) pathway controlled by the Bcl-2 family of proteins.
We next evaluated the effect of the pan-caspase inhibitor z-VAD-fmk on caspase signaling. As expected, the treatment with z-VAD-fmk rendered MCF7/FasR cells resistant to TNFα-induced PARP and caspase-7 processing (Figure 14A) and to the loss of cell viability (Figure 14B).
A tetrazolium-based MTT reagent (3-(4,5-dimethylthiazol-2-yl)-2,5-diphenyltetrazolium bromide) was used to determine cell viability, as previously described. After 72 h of treatment at 37 °C and 5% CO2, cells were incubated with 25 μL MTT solution (5 mg/mL; Sigma-Aldrich) for 4 h. After solubilization with 500 μL of lysis buffer (DMSO), formazan was quantified by spectrophotometry with a microplate reader at 570 nm absorbance (ClarioSTAR, BMG LabTech, Champigny-sur-Marne, France). […] All results were calculated from data obtained in at least three independent experiments.
Figure 11 Bcl-xL and z-VAD-fmk inhibited by Fas- or TNFα-induced cell death in MCF7 cells. […] Cell death was assessed by MTT assay. […]
Figure 14 Evaluation of apoptotic biomarkers. […] (B) Cell viability was evaluated in duplicate samples. Data are expressed as percent (%) of untreated cells and are the means of 3 independent experiments (***, p < 0.0001, NS, not significant).

[2] = tested on: PC-3 prostate cancer cells; assay: MTT cell viability, 72 h, dark or 458 nm irradiation; type: cell-based, human; conditions: for GI50: 72 h, MTT
Experimental: (§1) For all biology experiments, the compounds were solubilized in DMSO to reach a final fixed concentration equal to 0.1% v/v to avoid cytotoxicity caused by DMSO [89]. The results are normalized to controls (0.1% v/v DMSO). Depending on the cell type, approximatively 1000 to 10,000 cells/cm^2 were seeded in 48-well plates for MTT, ATP and GSH assays and 60 mm Petri dishes for Western blots. Cells were allowed to attach overnight and then incubated for 4 h with the different complexes (in the dark), then irradiated for 10 min, followed by an incubation in the dark up to 72 h.
(§2) Irradiation was conducted using an in-house device: a series of blue light LEDs selected according to the absorption spectra of the compounds at a 458 nm wavelength with an emitted power of 9.6 watts. The absorbed energy, or irradiance, was measured at 458 nm with a Thorlabs Optical Power Meter PM100A at 5 and 10 cm distance between the cell layer and the light source and expressed as mW/cm^2.
(§3) A tetrazolium-based MTT reagent (3-(4,5-dimethylthiazol-2-yl)-2,5-diphenyltetrazolium bromide) was used to determine cell viability, as previously described. After 72 h of treatment at 37 °C and 5% CO2, cells were incubated with 25 μL MTT solution (5 mg/mL; Sigma-Aldrich) for 4 h. After solubilization with 500 μL of lysis buffer (DMSO), formazan was quantified by spectrophotometry with a microplate reader at 570 nm absorbance (ClarioSTAR, BMG LabTech, Champigny-sur-Marne, France). GI50 values corresponding to the concentration that caused 50% inhibition of cell proliferation were calculated from dose–response curves obtained by nonlinear regression analysis. All results were calculated from data obtained in at least three independent experiments.

[3] = tested on: T24 bladder cancer cells; assay: as above; type: cell-based, human; conditions: for GI50: 72 h, MTT
Experimental: as §1, §2, §3

[4] = tested on: T24; assay: MTT cytotoxicity, 48 h; type: cell-based, human; conditions: for GI50: MTT; for SI (T24): NIH3T3 vs T24
Experimental: (§4) The in vitro cytotoxicity of iridium(III) complexes 4a–4g was first evaluated against cancer cell lines PC-3 (human prostate) and T24 (human bladder) and the non-cancerous NIH-3T3 cell line (murine fibroblasts) using colorimetric MTT tests after 48 h of treatment. The dimeric iridium precursor [IrCl(ppy)2]2 was used as reference and the results are summarized in Table S1 (Supplementary Materials) in the supporting information file. […] The complexes were also evaluated for their cytotoxicity towards healthy NIH-3T3 cells, giving access to the selectivity index (SI). […] No linear correlation between lipophilicity and anti-cancer activity was found for the iridium(III) complexes 4a–4g. For the following biological studies, we focused on the C1 series.
(§5) Table S1. Cytotoxic activity of iridium(III) NHC complexes 4a−4g expressed as GI50 (μM) values towards selected cancer and normal cell lines as determined by MTT assay (48 h).a Complex PC-3 T24 NIH3T3 SI (PC-3) SI (T24) […]
(§6) a GI50 values correspond to the concentration of complexes causing 50 % inhibition of cell growth.
(§7) Data were obtained from three independent experiments.
(§8) The cytotoxic effects of the NHC precursors, the imidazolium salts, which represents the potential hydrolysis and/or degradation products of the complexes, have been published before [SI-1, SI-2]. […]

[5] = tested on: PC-3; assay: MTT cytotoxicity, 48 h; type: cell-based, human; conditions: for GI50: MTT; for SI (PC-3): NIH3T3 vs PC-3
Experimental: as §4, §5, §6, §7, §8

[6] = tested on: NIH-3T3 fibroblasts; assay: MTT cell viability, 72 h, dark or 458 nm irradiation; type: cell-based, murine; conditions: for GI50: 72 h, MTT
Experimental: as §1, §2, §3

[7] = tested on: NIH3T3; assay: MTT cytotoxicity, 48 h; type: cell-based, murine
Experimental: as §4, §5, §6, §7, §8

[8] = Photophysical measurements (emission, quantum yield, lifetime) in CH2Cl2; type: physicochemical; conditions: CH2Cl2, 298 K, references POPOP and quinine sulfate
Text: All complexes have been photophysically investigated at standard pressure in CH2Cl2 at 298 K. The absorption spectra of complexes 4a to 4g in CH2Cl2 at 298 K are shown in Figure 7. The strong absorption bands below 300 nm correspond to spin-allowed ^1π→π* electronic ligand-centered (LC) transitions. The structureless bands at 300–360 nm are attributed to ppy-to-ppy ^1π→π* […] charge transfer (LLCT) and Ir-to-ppy metal-to-ligand charge transfer (MLCT) transitions. The lowest-lying bands in the visible region can be assigned to both singlet and triplet MLCT transitions. No significant difference in the absorption spectra of complexes 4a to 4g can be found in the CH2Cl2 solution.
The luminescence spectra of complexes 4a to 4f in CH2Cl2 at 298 K are shown in Figure 8 and their photophysical data are summarized in Table 1.
The relative emission quantum yields (ΦPL) of these complexes in CH2Cl2 at room temperature were measured by using POPOP and quinine sulfate in 1 N H2SO4 as standard references (ΦPL = 97% and ΦPL = 54%, respectively). […] In addition, the excited-state lifetimes of complexes 4a to 4d are in the range of 166.4–190.7 ns, indicating the phosphorescence nature of the emissions.
UV/Vis absorption spectra were recorded at RT on solutions contained in quartz cuvettes (optical pathlength 1 cm, Hellma® (HELLMA, Müllheim, Germany)) with a PerkinElmer® (PerkinElmer, Waltham, MA, USA) UV/VIS/NIR spectrophotometer Lambda 950 and a PerkinElmer® detector UV/VIS/NIR Accessory 2D Detector Module.
Fluorescence and phosphorescence emission spectra were obtained with a HORIBA JOBIN YVON (Bensheim, Germany) fluromax-4 and spectrofluorometer.
Luminescence quantum yields were measured according to the method of Demas and Crosby, on solution samples at RT. The quantum yield is defined as: ΦS=ΦR*As/Ar* ηs/ηr^2^2 where ΦS is the quantum yield of the sample, ΦR is the known quantum yield of the reference standard at the area subtended by the emission band (on a wavelength scale) and η is the refractive index of the solvent used for the preparation of the solution. As (related to the sample) and Ar (related to the reference) must be excitation wavelength. Different standards were selected depending on the spectral region of the interest: POPOP in hexane (Φ = 97%) and QUININNE in water (Φ = 54%).
Fluorescence lifetime measurements were performed by an Edinburgh FLS920 spectrofluorometer equipped with a TCC900 card for data acquisition in time-correlated single-photon counting experiments (0.5 ns time resolution) with a D2 lamp and an LDH-P-C-405 pulsed diode laser. The estimated experimental error was 2 nm on the band maximum (5% on the lifetime, 10% on the fluorescence quantum yield).

[9] = Octanol–water partition coefficient, shake-flask method; type: physicochemical; conditions: n-octanol/water, UV absorbance 260 nm
Experimental: Lipophilicities of all complexes have been measured by the classical shake-flask method, using UV absorption. The Log p values range from -0.063 to 0.861 in increasing order –0.063 (4a), 0.035 (4d), 0.519 (4f), 0.581 (4c), 0.842 (4b), 0.847 (4e) and 0.861 (4g).
The octanol–water partition coefficients (P) of 4a to 4g were determined using a shake-flask method. Water (100 mL, distilled after milli-Q purification) and n-octanol (100 mL, Sigma-Aldrich, St. Louis, MO, USA, ACS spectrophotometric grade, ≥99%) were shaken together for 24 h to allow saturation of both phases. Stock solutions of the […] compounds (50 μM) were prepared in the aqueous phase and aliquots (1 mL) of each of these stock solutions were then added to an equal volume of the n-octanol phase. The resultant biphasic solutions were mixed for 1 h and then centrifuged (3000× g, 5 min) (Eppendorf Centrifuges 5415R and 5804R) to separate the phases. The concentrations of the complexes in the organic and aqueous phases were then determined using UV absorbance spectroscopy (260 nm). Log P was defined as the logarithm of the ratio of the concentrations of the studied complex in the organic and aqueous phases (Log P = Log {[Ir(org)]/[Ir(aq)]}; values reported are the means of at least two separate determinations).

[10] = GI50 non-irradiated / GI50 irradiated

Row | SMILES | GI50 [4] | SI (T24) [4] | GI50 [5] | SI (PC-3) [5] | GI50 [7] | ΦPL emission quantum yield [8] | Log P [9] | also measured
1 | COC(=O)C[C@H](NC(=O)[C@H](C)NC(=O)[C@@H](NC(=O)OCc1ccccc1)C(C)C)C(=O)CF [z-VAD-fmk, reference compound] (Cbz-Val-Ala-Asp(OMe)-CH2F) | – | – | – | – | – | – | – | effect on cell death induced by Fas antibody and TNFα [1]: completely abolished cell death
2 | c1cc[c]2c(c1)-c1cccc[n+]1[Ir-3]213([Cl+][Ir-3]24([Cl+]1)([c]1ccccc1-c1cccc[n+]12)[c]1ccccc1-c1cccc[n+]14)[c]1ccccc1-c1cccc[n+]13 [[IrCl(ppy)2]2, reference compound] | 14800 nM | > 1.4 | > 20000 nM | > 1 | > 20 µM | – | – | GI50 ([2]; 458 nm irradiation 10 min, read-out: GI50 PC-3 Blue): 14 µM; PI PC-3 [2, 10]: 2.1; SI vs NIH, PC-3 Blue ([2]; blue light, GI50 NIH-3T3 / GI50 PC-3): 1.0; GI50 ([2]; dark, read-out: GI50 PC-3 Dark): 29 µM; SI vs NIH, PC-3 Dark ([2]; dark, GI50 NIH-3T3 / GI50 PC-3): 1.4; GI50 ([3]; 458 nm irradiation 10 min, read-out: GI50 T24 Blue): 22 µM; PI T24 [3, 10]: 1.2; SI vs NIH, T24 Blue ([3]; blue light, GI50 NIH-3T3 / GI50 T24): 0.7; GI50 ([3]; dark, read-out: GI50 T24 Dark): 26 µM; SI vs NIH, T24 Dark ([3]; dark, GI50 NIH-3T3 / GI50 T24): 1.5; GI50 ([6]; 458 nm irradiation 10 min, read-out: GI50 NIH-3T3 Blue): 14 µM; PI NIH-3T3 [6, 10]: 2.9; GI50 ([6]; dark, read-out: GI50 NIH-3T3 Dark): 40 µM
3 | CC(C)C[n+]1ccn2[c]1[Ir-3]13([c]4ccccc4-c4cccc[n+]41)([c]1ccccc1-c1cccc[n+]13)[c]1n(cc[n+]1CC(C)C)CC2.F[P-](F)(F)(F)(F)F [Complex 4f] | 910 nM | 4.5 | 910 nM | 4.5 | 4.1 µM | 0.2% | 0.519 | –
4 | F[P-](F)(F)(F)(F)F.c1ccc(C[n+]2ccn3[c]2[Ir-3]24([c]5ccccc5-c5cccc[n+]52)([c]2ccccc2-c2cccc[n+]24)[c]2n(cc[n+]2Cc2ccccc2)CC3)cc1 [Complex 4e] | 290 nM | 8.6 | 250 nM | 10.0 | 2.5 µM | 0.2% | 0.847 | –
